Measurements from US20240165196A1, “Beta-Lactamase Inhibitors” (VIB VZW, priority 2021, published 2024).

Legend:
Assay type in all cases: cell-based
[1] = system: E. coli clinical isolate, β-lactamase TEM-ESBL; CTX-M-TYPE; assay: MIC of ampicillin without/with 30 μg/mL TEM3.2, clinical isolates; details: isolate 2017 France, IAI, Peritoneal Fluid; ampicillin alone
Experimental: (§1) Moreover, the core sequence of peptide TEM3.0 also occurs in the structurally related SHV β-lactamase (FIG. 2E). Although the C-terminal extension residues H and N have been replaced with physicochemically similar R and Q, respectively (FIG. 2H). […] To quantify the synergy between these four peptides and penicillin G, we performed a so-called checkerboard assay, which allows to compare the activity of two test compounds co-incubated (here peptide and a beta-lactam antibiotic), to their individual activities in isolation. The result from the assay is quantified as the Fractional Inhibitory Concentration Index (FICI), and it is generally accepted that values below 0.5 indicate synergistic effects between the compounds. As a control, we generated a peptide using the same design, but based on a previously identified APR from the β-galactosidase enzyme (BGAL)^16 from E. coli (APR=SVIIWSL, peptide sequence=[…]) that has a MIC value>100 μg/mL on E. coli strain UZ_TEM104. We evaluated the synergy of the peptides with penicillin G in clinical E. coli isolates carrying the TEM (FIG. 2I) or SHV enzymes (FIG. 2J). […] As a further control, we also performed a checkerboard assay with an E. coli strain that was resistant to the aminoglycoside kanamycin and observed no synergy between this unrelated antibiotic and our peptides (FIG. 2L), in line with the notion that we are inhibiting a beta-lactamase but not the aminoglycoside degrading enzyme. […] The list of strains included some that harbored only TEM or SHV, but others contained additional Ambler Class A (CTX-M or OXA) or Class B (VIM and NDM) beta-lactamases. […] In contrast, the presence of the NDM-type […], that does have a high affinity for Ampicillin and that is completely distinct in sequence and structure from TEM and SHV, seemed to completely prevent the effect of the peptide on the beta-lactam sensitivity of the strains in which it occurred (see also further). As it appeared that TEM3.2 had activity in most isolates tested, we decided to focus further analysis on this peptide. Furthermore, we tested the performance of the TEM3.2 peptide in a checkerboard assay on strains carrying ESBL mutants of TEM, i.e. extended-spectrum mutations that cluster around the active site of the enzyme, and not in the aggregation prone region targeted by the peptide, and as expected from our mode of action, we observed synergy with ampicillin on these strains (FIG. 2M).
(§2) Determination of MIC values using the broth microdilution in the 96-well plate (BD Biosciences, Belgium) according to the EUCAST guideline, which was performed in 96-well polystyrene flat bottom microtiter plates (BD Biosciences). Briefly, a single colony was inoculated into 5 mL Difco™ Mueller Hinton Broth (BD Biosciences Ref 275730) and grown to the end-exponential growth phase in a shaking incubator at 37° C. Cultures were subsequently diluted to an MacFarland (0.5 optical density) then the culture was diluted to reach 10^6 CFU/mL in fresh MHB medium. 50 μl of different concentration of peptides ranging from 128 to 2 μg/mL were serially diluted to the sterile 96-well plate in MHB. 50 μL of the diluted bacteria in MHB were pipetted into 96-well plates to reach the final volume of 100 μL. The bacteria grown with the maximum concentration of carrier and medium were considered as positive and negative controls, respectively. The plates were statically incubated overnight at 37° C. to allow bacterial growth. OD was measured at 590 nm a multipurpose ultraviolet-visible plate reader, and the absorbance of the growth bacteria was measured using absorbance reader. Bacterial growth was also visually inspected and agreed well with the OD reading.

[2] = system: E. coli clinical isolate, β-lactamase TEM-ESBL; CTX-M-15; NDM-19; assay: as above; details: isolate 2017 Qatar, IAI, Abscess; ampicillin alone
Experimental: as §1, §2

[3] = system: E. coli clinical isolate, β-lactamase TEM-ESBL; CTX-M-15; NDM-5; assay: as above; details: isolate 2017 Qatar, UTI, Urine; ampicillin alone
Experimental: as §1, §2

[4] = system: E. coli clinical isolate, β-lactamase TEM-ESBL; CTX-M-27; assay: as above; details: isolate 2017 Romania, UTI, Urine; ampicillin alone
Experimental: as §1, §2

[5] = system: E. coli clinical isolate, β-lactamase TEM-ESBL; assay: as above; details: ampicillin alone
Experimental: as §1, §2

[6] = system: E. coli clinical isolate, β-lactamase SHV-2; CTX-M-55; VIM-1; assay: as above; details: isolate 2017 Turkey, UTI, Urine; ampicillin alone
Experimental: as §1, §2

[7] = system: E. coli clinical isolate, β-lactamase SHV-12; TEM-ESBL; assay: as above; details: isolate 2017 Germany, RTI, Bronchi; ampicillin alone
Experimental: as §1, §2

[8] = system: E. coli clinical isolate, β-lactamase TEM-ESBL; CTX-M-24; OXA-48; assay: as above; details: isolate 2017 Turkey, IAI, Abscess; ampicillin alone
Experimental: as §1, §2

[9] = system: E. coli clinical isolate, β-lactamase TEM-1; assay: as above; details: isolates year NA, country NA, ampicillin alone
Experimental: as §1, §2

E. coli NDM ? a = assay: antimicrobial susceptibility testing, VITEK 2 AST Cards
Experimental: (§3) Beta-lactamase clinical samples were collected from University Hospitals Leuven and tested for ESBL production using the disk diffusion method^61. The beta-lactamase reference isolates were purchased from IHMA International Health management associates. Bacterial strains were cultivated in Mueller Hinton Broth (MHB, Difco) at 37° C. Whenever required growth media were supplemented with appropriate antibiotic to the medium or plates (kanamycin 30 μg/mL, L-arabinose 0.5 mg/mL, and IPTG 1 mM/mL). Escherichia coli BL21 (Thermo Fisher Scientific, Belgium) was used for cloning and plasmid amplification. For selection of antibiotic resistance colonies, E. coli carrying plasmids was grown in LB agar plates supplemented with the relevant antibiotic. Bacterial CFU counting was done on blood agar plates (BD Biosciences, Belgium) or MHA agar plates. Species identification and antibiograms for all clinical isolates were performed using MALDI-Tof and VITEK® 2 automated system (BioMérieux, France).

E. coli TEM-206 = assay: as above
Experimental: as §3

E. coli NDM ? b = assay: as above
Experimental: as §3

E. coli SH ? (APHA) = assay: as above
Experimental: as §3

E. coli TEM-104 = system: E. coli TEM-104; as to Interpretation: key: S, susceptible; I, intermediate; R, resistant
Experimental: as §3

E. coli TEM-148 = system: E. coli TEM-148; as to Interpretation: key: S, susceptible; I, intermediate; R, resistant
Experimental: as §3

E. coli TEM-1 ? = system: E. coli TEM-1 ?
Experimental: as §3

SMILES: CC1(C)S[C@@H]2[C@H](NC(=O)[C@H](N)c3ccccc3)C(=O)N2[C@H]1C(=O)O [ampicillin, Ampicillin]
- MIC ampicillin [1]: > 64 µg/mL
- MIC ampicillin [2]: > 64 µg/mL
- MIC ampicillin [3]: > 64 µg/mL
- MIC ampicillin [4]: > 64 µg/mL
- MIC ampicillin ([5]; isolate 2016 Germany, UTI, Urine): > 64 µg/mL
- MIC ampicillin ([5]; isolate 2016 Lithuania, UTI, Urine): > 64 µg/mL
- MIC ampicillin ([5]; isolate 2017 Israel, UTI, Urine): > 64 µg/mL
- MIC ampicillin ([5]; isolate 2017 Portugal, RTI, Bronchi): > 64 µg/mL
- MIC ampicillin ([5]; isolates 2016 South Africa, IAI, Peritoneal Fluid): > 64 µg/mL
- MIC ampicillin [6]: > 64 µg/mL
- MIC ampicillin [7]: > 64 µg/mL
- MIC ampicillin [8]: > 64 µg/mL
- MIC ampicillin [9]: > 64 µg/mL
- Interpretation (E. coli NDM ? a): R
- Interpretation (E. coli TEM-206): R
- MIC (E. coli TEM-206): ≥ 32 µg/mL
- Interpretation (E. coli NDM ? b): R
- Interpretation (E. coli SH ? (APHA)): R
- Interpretation (E. coli TEM-104): R
- MIC (E. coli TEM-104): ≥ 32 µg/mL
- Interpretation (E. coli TEM-148): R
- MIC (E. coli TEM-148): ≥ 32 µg/mL
- Interpretation (E. coli TEM-1 ?): R
- MIC (E. coli TEM-1 ?): ≥ 32 µg/mL
